Measured values: patent US20150352131A1, “Compositions and Methods for the Prevention and Treatment of Osteolysis and Osteoporosis” (RHODE ISLAND HOSPITAL, priority 2013, published 2015)
Entries after “also recorded” stand apart in the source; their conditions may differ. Like-named read-outs stand apart in the source and are kept apart here.

How the values were obtained:
[1] = orthopedic implant; cited from earlier work
[2] = test system: BM-derived pre-osteoclast cultures (wild type bone marrow cells); assay: TRAP staining of multinucleated osteoclasts in ex vivo osteoclast culture; type: cell-based, mice; conditions: FIG. 5: NSC-87877 50 nM, Aldronates 25 nM, or combination
Protocol: Whole bone marrow (BM) was flushed from the explanted femurs and tibiae of euthanized mice with DMEM (Invitrogen, N.Y), and centrifuged at 1,500 rpm for 5 minutes. The pelletized cells were resuspended in red blood cell (RBC) lysis buffer, re-centrifuged at 1,500 rpm for 5 minutes, and then cultured in macrophage medium (DMEM supplemented with 10% FBS, 1% penicillin/streptomycin, and 10 ng/mL M-CSF) at 37° C. and 5% CO2 for 3 days (Tanaka S, et al. (1993) J Clin Invest 91(1):257-63) in either 100 mm tissue culture dishes, 4-well or 8-well chamber slides, or 48-well or 96-well tissue culture plates. The medium was changed every other day. To induce osteoclastogenic differentiation, BM cells cultured for 3 days in macrophage medium were further cultured for 5-7 days in osteoclast differentiation medium (DMEM supplemented with 10% FCS, 10 ng/mL M-CSF, and 100 ng/mL RANKL) (McHugh K P, et al. (2000) J Clin Invest 105(4):433-40; Zou W, et al. (2008) Mol Cell 31(3):422-31). These BM-derived osteoclasts were primarily used for the various assays in this study. […] TRAP^+ multinucleated osteoclasts (>3 nuclei) were quantified with the use of a Nikon digital microscope. Osteoclast-mediated bone resorptive activity was quantified using the pit assay (Xu D, et al. (2004) Biochemical Journal 383(Pt 2):219-225). […]

[3] = test system: osteoclasts; assay: Pit assay, osteoclast-mediated bone resorption on dentin slices; type: cell-based, mice
Description: TRAP staining was used to identify multinucleated osteoclasts in osteoclastogenic cell cultures or tibia section. Briefly, tibia from control and Shp2 mutant mice were fixed in 4% paraformaldehyde overnight and then decalcified in EDTA solution (14%) till bone tissue was soft. The specimens were then dehydrated according standard procedures and embedded for sectioning. TRAP^+ multinucleated osteoclasts (>3 nuclei) were quantified with the use of a Nikon digital microscope. Osteoclast-mediated bone resorptive activity was quantified using the pit assay (Xu D, et al. (2004) Biochemical Journal 383(Pt 2):219-225). Ethanol-sterilized slices of bovine bone were disposed in individual wells of a 48 well/plate with 1 mL osteoclast culture medium containing 2.5×10^4 BM macrophages (BMM) per well. After 8 to 10 days, all cellular components were removed from bone slices with a brief (10 minute) treatment with 5% sodium hypochlorite. […] The effect of Shp2 inhibition on osteoclast-mediated bone resorption was also studied in order to further test whether pharmacological inhibition of Shp2 could serve as a treatment modality. BMM were cultured on dentin slices in osteoclast medium and in the presence or absence of Shp2 inhibitor NSC-87877 (50 μM) (FIGS. 10A-B).

[4] = test system: osteoclastogenic genes c-Fos, Nfatc1, MMP9, Trap, and Ctsk in bone marrow derived macrophages (BMM); assay: qRT-PCR of osteoclastogenic gene expression in BMM induced by polyethylene or titanium particles; type: cell-based, mice; conditions: BMM with PeP or TiP, NSC87877 50 uM, 5 days of culture, normalized to GAPDH
Protocol: The average size of PeP and TiP is about […] in diameter (FIGS. 8A-B), within the range of orthopedic implant debris size; these particles can be efficiently engulfed by BMM and trigger their osteoclastogenic differentiation (FIGS. 8C-D). 5×10^5 BMM were cultured in BMM medium containing about 2×10^6 of PeP or TiP in the presence or absence of Shp2 inhibitor NSC87877 (50 uM). BMM cultured in osteoclast media (DMEM supplemented with 10% FCS, 10 ng/mL M-CSF, and 100 ng/mL RANKL) were used as a positive control. Total RNA was extracted from BMM after 5 days of culture using RNeasy mini kit (Qiagen, Valencia, Calif.). cDNA was synthesized using 1 μg total RNA with iSCRIPT™ cDNA Synthesis Kit (Bio-Rad, Hercules, Calif.) and q-PCR was performed with RT2SYBR® Green qPCR kit (Bio-Rad) on a CFX384 real-time PCR machine. Osteoclastogenic gene expressions in BMM were measured and normalized to Glyceraldehyde 3-phosphate dehydrogenase (GAPDH); their levels were then compared between NSC87877 treated and untreated groups.

[5] = test system: prostate cancer; conditions: delivered as loaded nanoparticles conjugated to T cells; cited from earlier work
[6] = mice given NSC-87877, cited from earlier work

Structure (SMILES)	bone ongrowth and shear strength [1]	number of osteoclasts (formation of TRAP+ multinucleated osteoclasts) [2]	osteoclast-mediated bone resorption (pits formed on dentin slices) ([3]; BMM from wild type mice in osteoclast medium, NSC-87877 50 μM, 10 days)	ability to resorb bone matrix (pits on dentin slices) ([3]; co-cultured 10 days on dentin slices, FIG. 5: NSC-87877 50 nM, Aldronates 25 nM, or combination)	expression of osteoclastogenic marker genes [4]	tumor burden [5]	toxicity in vivo (death versus control-treated or untreated mice) [6]	toxicity in vivo (death versus control-treated or untreated mice) ([6]; listed as NSC 87877)
NCCCC(O)(P(=O)(O)O)P(=O)(O)O [Alendronate]	increase	–	–	–	–	–	–	–
O=S(=O)(O)c1ccc2cc(/N=N/c3cc(S(=O)(=O)O)c4cccnc4c3O)ccc2c1 [NSC87877]	–	inhibited	formed only a few small pits; also recorded: markedly reduced	inhibited	significantly inhibited	effective in reducing tumor burden	did not die significantly sooner	lack of toxicity
